Test results reported in PMC5142624, “Reduced Activity of Mutant Calcium-Dependent Protein Kinase 1 Is Compensated in Plasmodium falciparum through the Action of Protein Kinase G” (mBio, 2016).

Columns and labels:
[1] = tested on: wild-type T. gondii parasites; design: method as in PMID 20436472, PMID 20485436; details: cited from earlier work
recombinant PfCDPK1 WT [2] = molecular target: T1, recombinant PfCDPK1 WT (Plasmodium falciparum, UniProt P62344); test: BKI library screening, in vitro kinase assay (KinaseGlo); type: biochemical; details: 10 µM ATP, 90 min at 30°C; two independent experiments in triplicate
T1 construct: made in house; host or cells: Escherichia coli BLR(DE3)pLysS, pGEX4T1
T1 sequence (P62344 whole entry): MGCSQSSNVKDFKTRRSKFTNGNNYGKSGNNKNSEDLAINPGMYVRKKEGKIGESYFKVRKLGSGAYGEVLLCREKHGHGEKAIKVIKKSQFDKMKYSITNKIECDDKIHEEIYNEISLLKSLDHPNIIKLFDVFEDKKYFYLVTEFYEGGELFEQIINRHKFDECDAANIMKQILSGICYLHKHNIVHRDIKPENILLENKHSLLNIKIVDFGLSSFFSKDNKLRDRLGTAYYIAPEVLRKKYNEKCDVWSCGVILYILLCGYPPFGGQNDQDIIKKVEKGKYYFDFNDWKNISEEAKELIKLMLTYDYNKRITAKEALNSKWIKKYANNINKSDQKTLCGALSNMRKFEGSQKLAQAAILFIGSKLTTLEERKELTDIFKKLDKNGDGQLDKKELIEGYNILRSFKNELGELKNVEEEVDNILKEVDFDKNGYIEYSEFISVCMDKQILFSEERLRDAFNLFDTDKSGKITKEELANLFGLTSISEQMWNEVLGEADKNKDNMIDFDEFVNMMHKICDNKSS
Description: (§1) Recombinant PfCDPK1 WT and PfCDPK1 T145M were used in the in vitro kinase assay to calculate the IC50s for the library of bumped kinase inhibitors. Thirty-one BKIs belonging to the pyrazolopyrimidine scaffold were screened ([18][–][21]). Protein kinase activity of recombinant enzymes was assayed using 20 µM synthetic peptide substrate […] […] These reactions were performed in a buffered solution containing 1 mM EGTA (pH 7.2), 10 mM MgCl2, 20 mM HEPES (pH 7.5), 0.1% BSA, and enzyme activation reagent containing 2 mM CaCl2. The reactions were initiated with addition of 10 µM ATP, and the reaction mixtures were incubated for 90 min at 30°C. […] The KinaseGlo (Promega, Madison, WI) luminescence-based assay, in which luminescence is inversely related to kinase activity and directly related to […], was used as previously described ([21]).

recombinant PfCDPK1 WT [3] = test: as above; type: biochemical, Plasmodium falciparum; details: PfCDPK1 WT vs T145M recombinant enzymes
Description: as §1

[4] = molecular target: T2, recombinant PfCDPK1 T145M (Plasmodium falciparum, UniProt P62344, T145M); test: as above; type: biochemical; details: methionine gatekeeper mutant T145M; 10 µM ATP, 90 min at 30°C; read-out: PfCDPK1Met IC50
T2 construct: Full-length CDPK1 WT and five mutant proteins with different substitutions at the gatekeeper position (residue 145) were expressed in E. coli; made in house; host or cells: Escherichia coli BLR(DE3)pLysS, pGEX4T1
T2 sequence (P62344 whole entry T145M): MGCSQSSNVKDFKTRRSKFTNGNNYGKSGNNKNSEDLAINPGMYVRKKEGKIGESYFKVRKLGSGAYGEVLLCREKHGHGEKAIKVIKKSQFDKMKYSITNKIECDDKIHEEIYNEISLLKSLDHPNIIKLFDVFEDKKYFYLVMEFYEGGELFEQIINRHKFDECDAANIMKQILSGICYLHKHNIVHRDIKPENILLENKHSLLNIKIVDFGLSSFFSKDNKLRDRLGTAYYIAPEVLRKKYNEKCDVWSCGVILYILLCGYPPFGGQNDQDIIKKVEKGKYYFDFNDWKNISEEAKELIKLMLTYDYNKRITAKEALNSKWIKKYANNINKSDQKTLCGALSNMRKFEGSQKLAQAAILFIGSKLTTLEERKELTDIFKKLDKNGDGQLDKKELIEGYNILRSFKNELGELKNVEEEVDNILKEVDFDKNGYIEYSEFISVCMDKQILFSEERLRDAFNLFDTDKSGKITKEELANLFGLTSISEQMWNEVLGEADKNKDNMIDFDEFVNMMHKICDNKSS
Description: as §1

[5] = molecular target: recombinant P. falciparum cGMP-dependent protein kinase (PfPKG) (Plasmodium falciparum, UniProt Q8I719); test: PfPKG in vitro kinase activity assay (luminescence); type: biochemical; details: 2 µM ATP, 20 µM cGMP, 2 h at 30°C; read-out: IC50 (SD) for PfPKG
recombinant P. falciparum cGMP-dependent protein kinase (PfPKG), sequence (Q8I719 whole entry): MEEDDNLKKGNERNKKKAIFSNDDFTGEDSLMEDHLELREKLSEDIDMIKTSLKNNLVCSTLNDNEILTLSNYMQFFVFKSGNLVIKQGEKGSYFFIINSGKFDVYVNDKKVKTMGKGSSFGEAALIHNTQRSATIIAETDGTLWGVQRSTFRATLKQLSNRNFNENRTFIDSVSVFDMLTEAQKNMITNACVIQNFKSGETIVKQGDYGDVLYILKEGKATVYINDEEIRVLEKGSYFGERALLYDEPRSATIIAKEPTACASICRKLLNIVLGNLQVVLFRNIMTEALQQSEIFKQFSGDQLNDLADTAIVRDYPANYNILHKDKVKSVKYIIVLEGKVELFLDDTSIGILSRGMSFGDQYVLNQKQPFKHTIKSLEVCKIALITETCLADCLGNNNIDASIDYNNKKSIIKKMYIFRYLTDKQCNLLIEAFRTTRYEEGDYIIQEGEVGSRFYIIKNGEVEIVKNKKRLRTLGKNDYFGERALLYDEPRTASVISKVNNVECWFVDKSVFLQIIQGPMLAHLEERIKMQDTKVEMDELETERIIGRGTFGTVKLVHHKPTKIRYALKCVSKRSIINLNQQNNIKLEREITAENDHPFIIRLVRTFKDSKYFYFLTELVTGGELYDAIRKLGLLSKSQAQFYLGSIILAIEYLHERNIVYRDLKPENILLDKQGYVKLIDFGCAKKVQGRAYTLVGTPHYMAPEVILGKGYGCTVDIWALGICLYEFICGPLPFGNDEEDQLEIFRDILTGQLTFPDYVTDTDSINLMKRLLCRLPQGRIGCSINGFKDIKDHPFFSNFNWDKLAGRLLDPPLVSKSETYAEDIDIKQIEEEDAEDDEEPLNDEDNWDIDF
Description: Compound efficacy against recombinant P. falciparum cGMP-dependent protein kinase (PfPKG) was determined using a novel nonradioactive and high-throughput assay. This assay evaluates protein kinase activity by measuring changes in […] ATP concentration via luminescence after PfPKG enzyme phosphorylation of a peptide substrate, PKCtide ([…]) (SignalChem, Richmond, BC, Canada). The in vitro kinase assay was set up with 26 µM PKCtide, 30 nM PfPKG, and 20 µM cGMP in a buffered solution containing 20 mM β-glycerol phosphate, 20 mM MgCl2, 25 mM HEPES (pH 7.5) (KOH), 0.1% bovine serum albumin (BSA), and 2 mM DTT ([37]). The reaction was initiated with addition of 2 µM ATP. The reaction mixture was incubated at 30°C and 90-rpm agitation for 2 h. Reaction wells with no PfPKG, no peptide substrate, and no cGMP were included in each assay plate as internal negative controls.

[6] = tested on: wild-type parasites (P. falciparum NF54); test: Asexual parasite growth inhibition (SYBR green I assay); type: cell-based, Plasmodium falciparum; details: BKIs
CDPK1 T145M parasites = test: as above; type: cell-based, Plasmodium falciparum; details: BKIs
Description: The parasites were electroporated as described earlier ([39]). Briefly, the ring-stage parasites at ~5% parasitemia were electroporated with 50 μg each of pL6CK1Met or pL6CK1Ser plasmid and pUF1 plasmid with the settings of 0.31 kV, 960 μF, and maximum capacitance on a Bio-Rad Gene Pulser II. WR99210 and DSM267 ([40]) were applied at the concentrations of 2 and 150 nM, respectively, after 24 h of transfection. The transgenic PfCDPK1 T145M parasites were cloned by limiting dilution in a 96-well plate. The PfCDPK1 gene sequence was amplified using primers ck1f1 (5′ […] 3′) and ck1r3wt (5′ […] 3′) specific for the region outside the homology arm of the plasmid, and the desired mutation was confirmed by DNA sequencing.
Asexual parasites were synchronized for two consecutive cycles by sorbitol treatment ([41]) and set up at 0.2% trophozoite stage (30 to 36 h postinvasion) in a 96-well plate. The growth progression was monitored for 7 days, and the growth rate of the parasites was calculated by sampling the culture every 24 h and measuring the fluorescence readout using the SYBR green I assay as described earlier ([42], [43]).

SMILES: Cc1cccc(Cc2nn(C(C)(C)C)c3ncnc(N)c23)c1 [3MBPP1]
- effect on microneme secretion and invasion of host cells [1]: block in microneme secretion and subsequent invasion of host cells

SMILES: CCOc1ccc2cc(-c3nn(CC4CCN(C)CC4)c4ncnc(N)c34)ccc2c1 [compound 1294]
- IC50 (recombinant PfCDPK1 WT [2]): 162 nM
- fold-greater effect in vitro on wild-type enzyme than on methionine mutant (recombinant PfCDPK1 WT [3]): 10 fold
- IC50 [4]: > 2000 nM
- IC50 [5]: 262 nM
- EC50 [6]: 10900 nM
- EC50 (CDPK1 T145M parasites): 6970 nM

SMILES: CCOc1ccc2cc(-c3nn(CC4CCN(C)CC4)c4ncnc(N)c34)ccc2n1 [compound 1369]
- IC50 (recombinant PfCDPK1 WT [2]): 438 nM
- IC50 [4]: > 2000 nM
- IC50 [5]: > 2000 nM
